This note sets out measurements from patent US20120201824A1, “Compositions and Methods for Inhibiting an Oncogenic Protein to Enhance Immunogenicity” (priority 2008, published 2012).

One test deals with CD274 mRNA. Put plainly: RT-PCR for CD274 mRNA in ALK+ TCL cells. It is filed as cell-based, human. To be noted: SUDHL-1 cells; rapamycin 300 nM, wortmannin 20 nM, U0126 15 μM, Jak3 inhibitor 1 μM. As for the experimental part: Total RNA was isolated using RNeasy Mini kit (Qiagen), treated with DNase I (Invitrogen), and reverse-transcribed by using Thermoscript RT-PCR system (Invitrogen) with random hexamers as cDNA synthesis primers. The following primer pairs were used for the cDNA amplification: β-actin, 5'[…] ID NO: 1) and 5'[…] ID NO: 2); CD274, 5'[…] ID NO: 3) and 5'[…] ID NO: 4). PCR was performed by using Platium […] polymerase (Invitrogen) for 21 cycles comprised of the denaturation step for 20 seconds at 94° C., annealing for 30 seconds at 58° C. and elongation for 30 seconds at 72° C. The PCR products were visualized by ethium bromide staining in 1.5% agarose gel. […] Inhibitors of: […] Marzec et al., 2007, Oncogene 26: 813-821; Marzec et al., 2007, Oncogene 26: 5606-5614; Marzec et al., 2008, Cancer Res 68: 1083-1091). A mixture of four STAT3 or STAT5b specific siRNA or non-targeting siRNA (all purchased from Dharmacon) was introduced into cells at 100 nM by lipofection with the hew generation Lipofectamine (DMRIE-C; Invitrogen). The procedure was repeated after 24 hours and the cells were cultured for an additional 24 hours. The cells were harvested at one time point 48 hours after first transfection. Extend of the protein knock-down was examined by Flow Cytometry and RT-PCR.

The next test concerns CD274 protein. In words: Flow cytometry for cell-surface CD274 protein in ALK+ TCL cells. It is filed as cell-based, human. As to conditions: SUDHL-1 cells; rapamycin 300 nM, wortmannin 20 nM, U0126 15 μM, Jak3 inhibitor 1 μM. As for the experimental part:
All antibodies were purchased from BD Pharmingen. The stained cells were applied to the flow cytometer (FACSCalibur; Becton Dickinson), and 20,000 events were analyzed. Results of the cell staining are presented as histograms with cell number on the vertical axis and relative fluorescence on the logarithmic horizontal axis. […] Inhibitors of: […] Marzec et al., 2007, Oncogene 26: 813-821; Marzec et al., 2007, Oncogene 26: 5606-5614; Marzec et al., 2008, Cancer Res 68: 1083-1091). A mixture of four STAT3 or STAT5b specific siRNA or non-targeting siRNA (all purchased from Dharmacon) was introduced into cells at 100 nM by lipofection with the hew generation Lipofectamine (DMRIE-C; Invitrogen). The procedure was repeated after 24 hours and the cells were cultured for an additional 24 hours. The cells were harvested at one time point 48 hours after first transfection. Extend of the protein knock-down was examined by Flow Cytometry and RT-PCR.
(In general: Flow cytometry measures light scatter and fluorescence of single cells or particles in a stream.)

Molecules are shown by their SMILES.

For the molecule `N#CC(=C(/N)Sc1ccccc1N)/C(C#N)=C(\N)Sc1ccccc1N` [U0126], the “CD274 expression on the mRNA level (RT-PCR)” value with CD274 mRNA is recorded as “no detectable impact”. In addition, the “CD274 expression on the protein level (flow cytometry)” value in the test on CD274 protein is “no detectable impact”.
